Source: patent US20230087342A1, “AZEPANE DERIVATIVE” (Nippon Chemiphar Co., Ltd., priority 2019, published 2023)

Each molecule was assayed against T1, human κ opioid receptors (Homo sapiens, UniProt P41145) (assay: Opioid receptor function test (Lance Ultra cAMP kit, agonist activity)). Details: CHO cells expressing human κ opioid receptors, 10 μM forskolin, 30 minutes.
T1 construct: host or cells: CHO cells
T1 sequence (P41145 whole entry): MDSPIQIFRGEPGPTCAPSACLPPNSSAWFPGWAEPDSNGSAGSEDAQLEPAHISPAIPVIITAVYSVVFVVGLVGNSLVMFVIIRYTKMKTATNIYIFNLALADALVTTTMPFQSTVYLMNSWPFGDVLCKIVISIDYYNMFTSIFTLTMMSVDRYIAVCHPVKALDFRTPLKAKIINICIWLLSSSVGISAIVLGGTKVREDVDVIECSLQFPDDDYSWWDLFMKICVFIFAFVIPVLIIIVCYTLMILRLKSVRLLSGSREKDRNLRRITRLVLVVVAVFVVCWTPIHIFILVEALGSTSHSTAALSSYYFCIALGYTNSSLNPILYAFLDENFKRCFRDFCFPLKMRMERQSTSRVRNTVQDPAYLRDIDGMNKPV
Assay type: cell-based
Experimental: Opioid Receptor Function Test
The function activity of the compound of the present invention on κ opioid receptors was examined.
Method: Using a Lance Ultra cAMP kit (Perkin Elmer), the examination was performed according to a predetermined method. In evaluation of agonist activity, CHO cells expressing human κ opioid receptors (Catalog No. CT6606, accession No. NM_000912) and a test compound were reacted in an assay buffer (1×HSS, 5 mM HEPES, pH 7.4, 0.5 mM IBMX (isobutylmethyixanthine), 0.1% SA) in the presence of 10 μM forskolin for 30 minutes. Subsequently, a cAMP detection reagent in the kit was added. One hour later, time-resolved fluorescence measurement was performed using an EnVision plate reader (Perkin Elmer). The evaluation of the test compound was performed in a concentration range of 10^−14 to 10^−7 M for the κ opioid receptor function test.
Molecule Cc1cc(CC(=O)N2CC[C@]34CCN(CC5CC5)[C@H](Cc5cc(C)c(O)cc53)[C@]4(O)CC2)ns1 [Example 323, 1-((5aS,6R,11bR)-14-(cyclopropylmethyl)-5a,10-dihydroxy-9-methyl-1,2,5,5a,6,7-hexahydro-6,11b-(epiminoethano)naphtho[1,2-d]azepin-3(4H)-yl)-2-(5-methylisothiazol-3-yl)ethan-1-one] has an EC50 of 0.18 nM.
O=C(Cc1cscn1)N1CC[C@]23CCN(CC4CC4)[C@H](Cc4ccc(O)cc42)[C@]3(O)CC1 [Example 33, 1-((5aS,6R,11bR)-14-(cyclopropylmethyl)-5a,10-dihydroxy-1,2,5,5a,6,7-hexahydro-6,11b-(epiminoethano)naphtho[1,2-d]azepin-3(4H)-yl)-2-(thiazol-4-yl)ethan-1-one] was tested, and the EC50 was 0.92 nM.
Work on Cc1cnn(CCN2CC[C@]34CCN(CC5CC5(F)F)[C@H](Cc5ccc(O)cc53)[C@]4(O)CC2)c1 (stereo partly drawn) [Example 218, (5aS,6R,11bS)-14-((2,2-difluorocyclopropyl)methyl)-3-(2-(4-methyl-1H-pyrazol-1-yl)ethyl)-2,3,4,5,6,7-hexahydro-6,11b-(epiminoethano)naphtho[1,2-d]azepine-5a,10(1H)-diol] yielded an EC50 of 0.16 nM.
Cc1cc2c(cc1O)[C@@]13CCN(C(=O)Cc4cn5ccccc5n4)CC[C@@]1(O)[C@@H](C2)N(CC1CC1)CC3 [Example 314, 1-((5aS,6R,11bR)-14-(cyclopropylmethyl)-5a,10-dihydroxy-9-methyl-1,2,5,5a,6,7-hexahydro-6,11b-(epiminoethano)naphtho[1,2-d]azepin-3(4H)-yl)-2-(imidazo[1,2-a]pyridin-2-yl)ethan-1-one] showed an EC50 of 0.27 nM.
In the case of C[Si]1(C)CCN(CCN2CC[C@]34CCN(CC5CC5)[C@H](Cc5ccc(O)cc53)[C@]4(O)CC2)CC1 [Example 133, (5aS,6R,11bS)-14-(cyclopropylmethyl)-3-(2-(4,4-dimethyl-1,4-azasilinan-1-yl)ethyl)-2,3,4,5,6,7-hexahydro-6,11b-(epiminoethano)naphtho[1,2-d]azepine-5a,10(1H)-diol], the EC50 is reported as 0.033 nM.
Oc1ccc2c(c1)[C@@]13CCN(CCCc4ccccn4)CC[C@@]1(O)[C@@H](C2)N(CC1CC1)CC3 [Example 69, (5aS,6R,11bS)-14-(cyclopropylmethyl)-3-(3-(pyridin-2-yl)propyl)-2,3,4,5,6,7-hexahydro-6,11b-(epiminoethano)naphtho[1,2-d]azepine-5a,10(1H)-diol] showed an EC50 of 0.28 nM.
For O=C(Cn1cc(C(F)(F)F)cn1)N1CC[C@]23CCN(CC4CC4)[C@H](Cc4ccc(O)cc42)[C@]3(O)CC1 [Example 143, 1-((5aS,6R,11bR)-14-(cyclopropylmethyl)-5a,10-dihydroxy-1,2,5,5a,6,7-hexahydro-6,11b-(epiminoethano)naphtho[1,2-d]azepin-3(4H)-yl)-2-(4-(trifluoromethyl)-1H-pyrazol-1-yl)ethan-1-one], the EC50 was 0.033 nM.
Work on Oc1ccc2c(c1)[C@@]13CCN(CCc4cc5ccccc5cn4)CC[C@@]1(O)[C@@H](C2)N(CC1CC1)CC3 [Example 123, (5aS,6R,11bS)-14-(cyclopropylmethyl)-3-(2-(isoquinolin-3-yl)ethyl)-2,3,4,5,6,7-hexahydro-6,11b-(epiminoethano)naphtho[1,2-d]azepine-5a,10(1H)-diol] yielded an EC50 of 0.064 nM.
Oc1ccc2c(c1)[C@@]13CCN(CCc4n[nH]c5ccccc45)CC[C@@]1(O)[C@@H](C2)N(CC1CC1)CC3 [Example 112, (5aS,6R,11bS)-3-(2-(1H-indazol-3-yl)ethyl)-14-(cyclopropylmethyl)-2,3,4,5,6,7-hexahydro-6,11b-(epiminoethano)naphtho[1,2-d]azepine-5a,10(1H)-diol] gave an EC50 of 0.037 nM.
For Cc1cnn(CC(=O)N2CC[C@]34CCN(CC5CC5)[C@H](Cc5cc(C)c(O)cc53)[C@]4(O)CC2)c1 [Example 328, 1-((5aS,6R,11bR)-14-(cyclopropylmethyl)-5a,10-dihydroxy-9-methyl-1,2,5,5a,6,7-hexahydro-6,11b-(epiminoethano)naphtho[1,2-d]azepin-3(4H)-yl)-2-(4-methyl-1H-pyrazol-1-yl)ethan-1-one], the EC50 was 0.33 nM.
